The record followed here is US20070043024A1, “Azacyclic compounds as inhibitors of sensory neurone specific channels” (priority 2003, published 2007).

Each structure is given as a SMILES string. Where two headings read alike, the source gives them in different places.

This assay deals with T1, human Nav1.8 (hNav1.8) ion channel (Homo sapiens, UniProt Q9Y5Y9).
T1 construct: expressed in transfected cells
As to the kind of experiment: Inhibition of human Nav1.8 stably expressed in SH-SY-5Y cells (membrane potential dye fluorescence assay). The assay is classed as cell-based. To be noted: SH-SY-5Y hNav1.8 cells, inhibition of membrane depolarisation, FLIPR membrane potential dye, 250 nM TTX, test concentration range 100 μM-0.05 μM, read-out: IC50.

Setting [1] is: Table 2 (compound numbers of the list in the description).

T1 sequence (Q9Y5Y9 whole entry): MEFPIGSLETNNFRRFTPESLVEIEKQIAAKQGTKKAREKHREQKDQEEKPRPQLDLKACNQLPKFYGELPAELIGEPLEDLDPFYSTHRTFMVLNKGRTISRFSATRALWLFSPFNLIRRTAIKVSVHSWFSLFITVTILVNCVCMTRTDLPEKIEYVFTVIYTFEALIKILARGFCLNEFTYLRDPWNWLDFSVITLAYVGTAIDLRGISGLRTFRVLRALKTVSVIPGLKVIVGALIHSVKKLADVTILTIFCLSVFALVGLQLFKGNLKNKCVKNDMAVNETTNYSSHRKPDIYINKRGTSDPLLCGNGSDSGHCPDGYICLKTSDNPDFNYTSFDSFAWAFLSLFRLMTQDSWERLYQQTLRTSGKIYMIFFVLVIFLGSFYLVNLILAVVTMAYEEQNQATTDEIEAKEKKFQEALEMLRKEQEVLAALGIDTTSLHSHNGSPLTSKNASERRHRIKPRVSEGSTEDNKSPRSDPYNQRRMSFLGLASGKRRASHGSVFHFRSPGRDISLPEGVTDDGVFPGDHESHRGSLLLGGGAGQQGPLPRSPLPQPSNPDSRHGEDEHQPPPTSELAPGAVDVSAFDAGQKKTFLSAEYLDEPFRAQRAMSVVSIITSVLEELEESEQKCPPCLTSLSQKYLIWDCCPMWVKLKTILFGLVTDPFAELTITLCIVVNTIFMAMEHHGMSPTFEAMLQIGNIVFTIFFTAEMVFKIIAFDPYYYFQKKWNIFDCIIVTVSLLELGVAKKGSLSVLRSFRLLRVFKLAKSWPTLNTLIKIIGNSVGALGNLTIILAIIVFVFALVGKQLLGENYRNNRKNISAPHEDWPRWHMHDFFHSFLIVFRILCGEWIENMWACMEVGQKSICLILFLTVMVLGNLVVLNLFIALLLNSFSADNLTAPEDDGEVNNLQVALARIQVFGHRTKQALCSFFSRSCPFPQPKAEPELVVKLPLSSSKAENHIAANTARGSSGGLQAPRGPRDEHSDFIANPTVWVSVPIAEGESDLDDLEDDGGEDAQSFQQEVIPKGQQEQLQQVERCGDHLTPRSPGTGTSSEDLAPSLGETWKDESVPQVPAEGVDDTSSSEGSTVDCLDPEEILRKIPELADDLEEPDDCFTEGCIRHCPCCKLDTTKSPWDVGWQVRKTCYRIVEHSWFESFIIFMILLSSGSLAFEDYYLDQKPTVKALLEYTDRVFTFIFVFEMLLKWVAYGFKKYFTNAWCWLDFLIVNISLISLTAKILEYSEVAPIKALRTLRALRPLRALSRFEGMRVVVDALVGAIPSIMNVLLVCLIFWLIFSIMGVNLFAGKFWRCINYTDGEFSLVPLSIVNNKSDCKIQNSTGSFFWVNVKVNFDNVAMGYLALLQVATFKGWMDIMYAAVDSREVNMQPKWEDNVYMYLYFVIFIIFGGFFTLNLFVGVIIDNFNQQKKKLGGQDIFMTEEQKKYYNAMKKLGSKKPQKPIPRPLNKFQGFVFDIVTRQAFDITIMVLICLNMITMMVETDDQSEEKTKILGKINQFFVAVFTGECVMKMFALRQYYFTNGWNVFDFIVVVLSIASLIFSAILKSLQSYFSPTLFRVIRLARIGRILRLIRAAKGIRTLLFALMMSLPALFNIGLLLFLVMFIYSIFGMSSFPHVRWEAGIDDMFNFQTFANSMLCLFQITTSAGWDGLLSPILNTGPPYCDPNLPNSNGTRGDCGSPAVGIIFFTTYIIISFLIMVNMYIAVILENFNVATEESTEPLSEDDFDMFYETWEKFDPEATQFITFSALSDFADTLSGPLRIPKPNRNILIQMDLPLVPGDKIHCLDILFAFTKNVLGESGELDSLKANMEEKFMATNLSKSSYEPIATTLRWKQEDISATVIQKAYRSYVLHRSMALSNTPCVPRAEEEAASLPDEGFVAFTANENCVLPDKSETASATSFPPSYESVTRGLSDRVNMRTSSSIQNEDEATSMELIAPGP

On to `COc1cccc2c1CN(CC(=O)NC1c3ccccc3Oc3ccccc31)CC2` [Compound 180, 2-(8-Methoxy-3,4-dihydro-1H-isoquinolin-2-yl)-N-(9H-xanthen-9-yl)-acetamide], for which, under setting [1], the half-inhibitory concentration (IC50) was found to be 5.19 µM.
The same measure, in the same setting: under `COc1cc2c(cc1OC)CN(CC(=O)NC(c1ccc(F)cc1)c1ccc(F)cc1)CC2` [Compound 121, N-[Bis-(4-fluoro-phenyl)-methyl]-2-(6,7-dimethoxy-3,4-dihydro-1H-isoquinolin-2-yl)-acetamide] stands 3.45 µM; under `Nc1cccc2c1CCN(CCC(=O)NCCC(c1ccccc1)c1ccccc1)C2` [Compound 122, 3-(5-Amino-3,4-dihydro-1H-isoquinolin-2-yl)-N-(3,3-diphenyl-propyl)-propionamide], 0.96 µM.
`O=C(CN1CCc2ccccc2C1)N1CCN(C(c2ccccc2)c2ccccc2)CC1` [Example 64, 1-(4-Benzhydryl-piperazin-1-yl)-2-(3,4-dihydro-1H-isoquinolin-2-yl)-ethanone]: the IC50 (Table 1) stood at 3.14 µM.
Take `O=C(NCCN1CCc2cccc(O)c2C1)N1c2ccccc2Sc2ccccc21` [Compound 160, Phenothiazine-10-carboxylic acid [2-(8-hydroxy-3,4-dihydro-1H-isoquinolin-2-yl)-ethyl]-amide]: under setting [1], the IC50 is 0.95 µM.
On to `O=C(CN1Cc2ccccc2C1)NCC(c1ccccc1)c1ccccc1` [Example 66], for which the IC50 by setting is: (Table 1) 2.05 µM; under setting [1], 2.05 µM.
Turning to `COc1ccc2c(c1)CN(CCN(Cc1ccccc1)Cc1ccccc1)CC2` [Example 88, Dibenzyl-[2-(7-methoxy-3,4-dihydro-1H-isoquinolin-2-yl)-ethyl]-amine], under “Table 1”, the IC50 worked out at 0.58 µM.
